20 compounds from ChEMBL document CHEMBL5584307, “Discovery of a Potent and Orally Bioavailable Xanthine Oxidase/Urate Transporter 1 Dual Inhibitor as a Potential Treatment for Hyperuricemia and Gout” (J Med Chem, 2024) can be followed below.

Data set [1] addresses T1, Xanthine dehydrogenase/oxidase (Homo sapiens, UniProt P47989). The data set can be described thus: Inhibition of xanthine oxidase (unknown origin) at 10 uM by absorbance based assay.
Data set [2] concerns Sapajus apella. The conditions noted are these: dose 30.0 mg/kg/day, route po, time 3.0 day.
Data set [3] deals with Sapajus apella. Put plainly: Urate lowering effect in Tufted capuchin monkey assessed as fraction excretion of uric acid at 30 mg/kg/day, po qd for 3 days consecutively relative to control. It is filed as functional. Conditions: time 3 day; call rule not given here.
The target in data set [4] is T1, Xanthine dehydrogenase/oxidase. Put plainly: Inhibition of xanthine oxidase (unknown origin) by absorbance based assay.
In data set [5] the target is T2, Solute carrier family 22 member 12 (Homo sapiens, UniProt Q96S37).
T2 sequence (Q96S37 whole entry): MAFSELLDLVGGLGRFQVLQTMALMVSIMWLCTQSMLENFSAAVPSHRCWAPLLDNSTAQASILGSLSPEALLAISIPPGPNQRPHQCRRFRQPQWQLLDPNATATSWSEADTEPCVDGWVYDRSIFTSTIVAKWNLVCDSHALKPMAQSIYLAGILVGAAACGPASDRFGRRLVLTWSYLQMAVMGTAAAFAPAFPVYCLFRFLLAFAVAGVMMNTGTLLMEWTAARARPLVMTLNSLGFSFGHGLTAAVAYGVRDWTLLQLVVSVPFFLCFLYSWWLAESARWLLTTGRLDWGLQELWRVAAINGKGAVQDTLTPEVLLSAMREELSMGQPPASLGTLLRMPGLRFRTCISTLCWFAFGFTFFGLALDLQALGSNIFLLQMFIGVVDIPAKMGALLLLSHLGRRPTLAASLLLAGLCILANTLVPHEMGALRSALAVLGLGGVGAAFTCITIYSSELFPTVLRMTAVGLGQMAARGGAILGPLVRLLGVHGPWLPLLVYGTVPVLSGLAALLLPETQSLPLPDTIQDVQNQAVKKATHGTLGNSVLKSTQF
Put plainly: Inhibition of URAT1 (unknown origin) by absorbance based assay.

A short description of data set [6]: Half life in overnight-fasted Sprague-Dawley rat at 5 mg/kg, po measured upto 24 hrs by LC-MS/MS analysis. It is filed as ADME, organism-based. Conditions: in vivo.
A short description of data set [7]: AUC (last) in overnight-fasted Sprague-Dawley rat at 1 mg/kg, iv measured upto 24 hrs by LC-MS/MS analysis. It is filed as ADME, organism-based. Conditions: in vivo.
Data set [8] can be described thus: AUC (last) in overnight-fasted Sprague-Dawley rat at 5 mg/kg, po measured upto 24 hrs by LC-MS/MS analysis. The format is ADME, organism-based. The conditions noted are these: in vivo.
Data set [9] in a line: Volume of distribution at steady state in overnight-fasted Sprague-Dawley rat at 5 mg/kg, po or 1 mg/kg, iv measured upto 24 hrs by LC-MS/MS analysis. It is filed as ADME, organism-based. The conditions noted are these: in vivo.
The nature of data set [10]: Oral bioavailability in overnight-fasted Sprague-Dawley rat at 5 mg/kg measured upto 24 hrs by LC-MS/MS analysis. The format is ADME, organism-based. The conditions noted are these: in vivo.
The nature of data set [11]: Clearance in overnight-fasted Sprague-Dawley rat at 1 mg/kg, iv measured upto 24 hrs by LC-MS/MS analysis. It is filed as ADME, organism-based. The conditions noted are these: in vivo.
Data set [12] can be described thus: Cmax in overnight-fasted Sprague-Dawley rat at 5 mg/kg, po measured upto 24 hrs by LC-MS/MS analysis. The conditions noted are these: in vivo. The format is ADME, organism-based.
For data set [13], the system named is Sapajus apella. Put plainly: Urate lowering effect in Tufted capuchin monkey assessed as urine xanthine level at 2 mg/kg/day, po qd for 3 days consecutively. It is filed as functional. The conditions noted are these: time 3 day.
Data set [14] has as its target T2, Solute carrier family 22 member 12. The data set can be described thus: Inhibition of URAT1 (unknown origin) at 10 uM by absorbance based assay.
Data set [15] concerns Sapajus apella. Conditions: dose 2.0 mg/kg/day, route po, time 3.0 day.
The subject of data set [16] is Sapajus apella. The data set can be described thus: Urate lowering effect in Tufted capuchin monkey assessed as serum xanthine level at 2 mg/kg/day, po qd for 3 days consecutively. The format is functional. Conditions: time 3 day.

Molecules are shown by their SMILES. Bounds are passed on as bounds.

T1 sequence (P47989 whole entry): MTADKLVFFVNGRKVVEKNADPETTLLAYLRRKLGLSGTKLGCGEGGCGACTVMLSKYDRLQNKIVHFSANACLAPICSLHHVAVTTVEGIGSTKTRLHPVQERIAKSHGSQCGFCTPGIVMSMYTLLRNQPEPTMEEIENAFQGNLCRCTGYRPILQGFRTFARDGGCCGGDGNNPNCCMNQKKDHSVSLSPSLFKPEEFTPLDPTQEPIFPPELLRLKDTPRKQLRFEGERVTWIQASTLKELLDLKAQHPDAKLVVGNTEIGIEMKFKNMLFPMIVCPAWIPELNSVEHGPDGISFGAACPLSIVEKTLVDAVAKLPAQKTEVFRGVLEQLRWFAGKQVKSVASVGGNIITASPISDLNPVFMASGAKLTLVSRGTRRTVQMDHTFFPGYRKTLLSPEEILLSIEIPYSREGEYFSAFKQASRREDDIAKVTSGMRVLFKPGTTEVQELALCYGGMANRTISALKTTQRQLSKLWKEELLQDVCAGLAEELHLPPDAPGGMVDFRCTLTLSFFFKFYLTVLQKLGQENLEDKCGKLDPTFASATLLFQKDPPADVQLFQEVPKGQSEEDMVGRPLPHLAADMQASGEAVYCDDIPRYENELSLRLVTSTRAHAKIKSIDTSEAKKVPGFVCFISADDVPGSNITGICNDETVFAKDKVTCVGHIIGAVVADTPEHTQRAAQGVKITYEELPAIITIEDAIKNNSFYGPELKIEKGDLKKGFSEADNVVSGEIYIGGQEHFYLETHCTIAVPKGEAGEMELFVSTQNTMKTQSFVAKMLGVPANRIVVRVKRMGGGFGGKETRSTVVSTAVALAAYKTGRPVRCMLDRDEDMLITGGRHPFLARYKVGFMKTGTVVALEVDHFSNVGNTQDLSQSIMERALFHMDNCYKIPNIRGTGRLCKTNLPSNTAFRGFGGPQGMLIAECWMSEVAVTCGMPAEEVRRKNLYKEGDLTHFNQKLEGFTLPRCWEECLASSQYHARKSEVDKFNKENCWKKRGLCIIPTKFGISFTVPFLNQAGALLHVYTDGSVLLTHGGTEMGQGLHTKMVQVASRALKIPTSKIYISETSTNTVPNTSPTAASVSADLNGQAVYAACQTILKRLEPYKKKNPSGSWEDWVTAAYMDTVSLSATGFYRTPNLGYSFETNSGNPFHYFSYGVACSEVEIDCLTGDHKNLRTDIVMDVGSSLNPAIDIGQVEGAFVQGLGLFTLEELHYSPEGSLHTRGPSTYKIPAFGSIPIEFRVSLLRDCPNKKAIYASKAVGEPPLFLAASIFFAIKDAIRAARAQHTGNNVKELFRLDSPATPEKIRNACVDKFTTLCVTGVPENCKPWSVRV

Take `CCc1oc2ccccc2c1C(=O)c1cc(Br)c(O)c(Br)c1` [BENZBROMARONE]: the “inhibition (INH)” value in [1] is given as “Not Active”. The compound also displayed an AUC in the data set on Sapajus apella [2] of 894000 ng·h/mL. The Activity in the data set with Sapajus apella [3] was 42.3%.
In general, IC50 refers to the concentration that gives 50% inhibition. With `N#Cc1cc2c(c(-c3ccc(C(=O)O)c(O)c3)c1)OCC2`, the half-maximal inhibitory concentration (IC50) was determined as 46 nM in [4] and 352 nM in [5].
Usually half-life stands for how long it takes for the measured level to halve. A word on the AUC(0-t): it is the area under the concentration-time curve up to a stated or last time point. Usually clearance stands for a measure of how efficiently the substance is removed, as volume per time. Usually Cmax stands for the maximum level reached in the sampled fluid or tissue. As to `N#Cc1cc(-c2ccc(C(=O)O)c(O)c2)c2oc(Cl)cc2c1`, the half-life in [6] is 3.05 h. Also, the AUC(0-t) at 24 h in [7] is 5480 ng·h/mL; in data set [8], 28100 ng·h/mL. This compound had a Vdss in [9] of 0.4 L/kg. Further, the bioavailability in data set [10] stood at 93.9%. Moreover, in data set [11], the clearance amounted to 2.77 mL/min/kg. Also, the Cmax in data set [12] came to 3700 ng/mL. It took 37 nM to reach half-maximal inhibition in data set [5] (IC50).
For `CC(C)COc1ccc(-c2ccc(C(=O)O)c(O)c2)cc1C#N`, the concentration for half-maximal inhibition (IC50) in data set [4] is 18 nM; in data set [5], 8300 nM.
For `Cc1cc2cc(C#N)cc(-c3ccc(C(=O)O)c(O)c3)c2o1`, in that order: 61 nM and 623 nM.
In data set [6], `N#Cc1cc(-c2ccc(C(=O)O)c(O)c2)c2occc2c1` showed a half-life of 3.45 h. In addition, the results for the AUC(0-t) at 24 h in [7] and in [8] were 6860 ng·h/mL and 44400 ng·h/mL, respectively. Further, the Vdss in data set [9] was 0.399 L/kg. Further, in data set [10], the bioavailability stood at 131%. This compound also showed a clearance in data set [11] of 2.4 mL/min/kg. This compound gave a Cmax in data set [12] of 6830 ng/mL.
Consider `N#Cc1cccc(-c2ccc(C(=O)O)c(O)c2)c1`, for which the IC50 in [4] came out at 37 nM; in [5], 2200 nM.
Regarding `N#Cc1cc2c(c(-c3ccc(C(=O)O)c(O)c3)c1)CCC2`, the figures for the IC50 in [4] and in data set [5] were 560 nM and 107 nM, respectively.
For `N#Cc1cc(-c2ccc(C(=O)O)c(O)c2)c2sccc2c1` the same measures were 133 nM and 444 nM.
For `N#Cc1cc(-c2ccc(C(=O)O)cc2)c2occc2c1` the same measures were 591 nM and 598 nM.
Take `N#Cc1cc(-c2ccc(C(=O)O)c(O)c2)c2ccsc2c1`: the half-life in [6] is 1.86 h. Besides, the figures for the AUC(0-t) at 24 h in [7] and in data set [8] were 902 ng·h/mL and 2430 ng·h/mL, respectively. Besides, the Vdss in data set [9] is 0.4 L/kg. In addition, in data set [10], the bioavailability came to 55.8%. In data set [11], this compound gave a clearance of 18.6 mL/min/kg. For the same compound, the Cmax in [12] stood at 2050 ng/mL.
As to `COc1cc(-c2cc(C#N)cc3ccoc23)ccc1C(=O)O`, the IC50 in data set [4] is > 10000 nM; in data set [5], 3750 nM.
On to `O=C(O)c1ccc(-c2cc(C(F)(F)F)cc3ccoc23)cc1O`, for which the IC50 in data set [4] was 388 nM; in data set [5], 3190 nM.
For `N#Cc1cc(-c2ccc(C(=O)O)c(O)c2)c2ncsc2c1` the same measures were 101 nM and 3640 nM.
For `N#Cc1cc(-c2ccc(C(=O)O)c(O)c2)c2occ(C(F)(F)F)c2c1`, in that order: 8 nM and 1650 nM.
For the compound `CC(C)COc1ccc(-c2cccc(O)c2C(=O)O)cc1C#N`, the IC50 in data set [4] and in [5] was > 10000 nM throughout.
Consider `N#Cc1cc(-c2ccc(C(=O)O)c(O)c2)c2cc[nH]c2c1`, for which the IC50 in [4] is 27 nM; in data set [5], > 10000 nM.
For `N#Cc1cc(-c2ccc(C(=O)O)c(O)c2)c2oc(C(F)(F)F)cc2c1`, in that order: 347 nM and 104 nM.
For the compound `Cc1nc(-c2ccc(OCC(C)C)c(C#N)c2)sc1C(=O)O` [FEBUXOSTAT], the Activity amounted to 32.1 µg·h/mL in the data set on Sapajus apella [13] and 6.61 µg·h/mL with Sapajus apella [16]. The “inhibition (INH)” value in [14] is on record as “Not Active”. In addition, the AUC in the data set on Sapajus apella [15] was 478000 ng·h/mL.
`N#Cc1cc(-c2ccc(C(=O)O)c(O)c2)c2ccoc2c1` showed a half-life in data set [6] of 2.66 h. For the same compound, the AUC(0-t) at 24 h in [7] turned out to be 8530 ng·h/mL; in data set [8], 43200 ng·h/mL. The compound further came in with a Vdss in data set [9] of 0.155 L/kg. For the same compound, the IC50 in data set [4] turned out to be 39 nM. The bioavailability in [10] amounted to 99.5%. The compound further showed a clearance in [11] of 1.93 mL/min/kg. Besides, the peak level in [12] (Cmax) was 6550 ng/mL.
